# Marks after values point to notes of the source that are not given here.
# Assays:
# [1] = tested on: RT112/lucl xenograft tumors; experiment: Anti-tumor activity in RT112/lucl subcutaneous xenograft model in nude mice; format: in vivo, mouse; conditions: 14 days; for Regr. (%) / Δ body weight (% ± SEM) / Δ body weight (mean g ± SEM) / Δ tumor volume (mean mm^3 ± SEM): p.o., qd
# Experimental: (§1) Animals. Experiments were performed in female HsdNpa: Athymic Nude-nu mice obtained from Laboratory Animal Services, Novartis Pharma AG, Basel, Switzerland. The animals were kept under OHC conditions in Makrolon type II cages (maximum of 10 animals/cage) with 12 hour dark, 12 hour light conditions (lights on: 6 AM, lights off: 6 PM). The animals were fed food and water ad libitum. Experiments were conducted under license number 1762 and license number 1763 approved by the Basel Cantonal Veterinary Office. All invasive procedures were performed under Forene anesthesia.
# Establishment of RT112/lucl tumor xenograft model in nude mice. The parental RT-112 human urinary bladder transitional cell carcinoma cell line, which expressed high levels of wild type FGFR3, was initially derived from a patient with untreated primary urinary bladder carcinoma (histological grade G2, stage not recorded) in 1973 (Marshall et al., 1977, Masters et al., 1986). The original stock vial of RT112 cells used in this study was obtained from DSMZ ACC #418.
# The cells were cultured in MEM medium supplemented with 10% Fetal Calf Serum, 1% sodium pyruvate and 1% L-glutamine. Cell culture reagents were purchased from BioConcept (Allschwil, Switzerland).
# The parental RT112 cell line was infected with the retroviral expression vector pLNCX2/lucl and pools of G418 resistant cells were established and characterized for luciferase expression. The CMV driven expression of luciferase allows the detection of tumors using Xenogen IVIS™ cameras after injection of D-luciferin.
# For the RT112/lucl model, treatments were initiated when the mean tumor volumes were approx. 180 mm^3 and mice were treated daily for 14 days. Body weights and tumor volumes were recorded twice a week. Tumor volumes were measured with calipers and determined according to the formula length×diameter^2×π/6.
# (§2) Statistical analysis. When applicable, results are presented as mean±SEM. Tumor and body weight data were analyzed by ANOVA with post hoc Dunnett's test for comparison of treatment versus control group. The post hoc Tukey test was used for intra-group comparison. The level of significance of body weight change within a group between the start and the end of the experiment was determined using a paired t-test. Statistical analysis was performed using GraphPad prism 4.02 (GraphPad Software).
# (§3) As a measure of anti-tumor efficacy, the % T/C value is calculated at a certain number of days after treatment start according to: (mean change of tumor volume treated animals/mean change tumor volume control animals)×100. When applicable, % regressions are calculated according to the formula (mean change tumor volume/mean initial tumor volume)×100.
# (§4) Compound formulation and animal treatment. […] Vehicle consisted of PEG300/DSW. The application volumes were 10 ml/kg.
# FGF23 [2] = experiment: FGF23 ELISA in plasma of nude mice bearing RT112/lucl xenografts; format: in vivo, mouse; conditions: 50 or 75 mg/kg/qd p.o., 14 days; two hours post-last dosing
# Experimental: Data are presented as means±SD.
# Tissue processing for ex vive analysis. At the end of the experiments, 2 hours after the last compound administrations, tumor samples and blood were collected.
# Aliquots of 50 mg tumor powder were weighed, placed on ice and immediately resuspended at a ratio of 1:10 (w/v) in ice-chilled lysis buffer (50 mM Tris pH 7.5, 150 mM NaCl, 1 mM EGTA, 5 mM EDTA, 1% Triton, 2 mM NaVanadate, 1 mM PMSF and protease inhibitors cocktail Roche #11873580001). Lysis was allowed to proceed for 30 min on ice, lysates were clarified by centrifugation at 12000×g for 15 min and protein concentration was determined using DC protein assay reagents (Bio Rad #500-0116) and a BSA standard. Blood was collected from the vena cava with a 23 gauge needle into a 1 ml syringe containing 70 μl of a 1000 IU/ml heparin solution. Blood was then stored on ice for 30 min until centrifugation (10,000 g, 5 min) and then the plasma was collected.
# FGF23 ELISA assay. […] Briefly, two specific murine monoclonal antibodies that bind to full-length FGF-23 are used: the first antibody is immobilized onto the microtiter plate well for capture and the second antibody is cojugated to HRP (horseradish peroxidase) for detection. In a first reaction, plasma or serum samples are added onto microtiter wells coated with the anti-FGF23 antibody to allow binding. […]
# [3] = tested on: NIH3T3/FGFR3^S249C subcutaneous tumors; experiment: Anti-tumor activity in subcutaneous NIH3T3/FGFR3^S249C tumor homograft model in nude mice; format: in vivo, mouse; conditions: p.o., qd, treatment day 8
# Experimental: as §1
# Establishment of NIH3T3/FGFR3^S249C tumor homograft model in nude mice. The NIH3T3/FGFR3^S249C model has been validated and characterized as a subcutaneous murine tumor model for the in vivo profiling of FGFR inhibitors. The parental NIH3T3 cell line was originally derived by immortalization of mouse embryonic fibroblasts. NIH3T3/FGFR3^S249C cells were generated by infection of parental NIH3T3 fibroblasts with a retroviral vector expressing FGFR3 with the activating mutation S249C. Pools of G418 resistant NIH3T3^S249C cells were established and characterized for FGFR3 expression and tyrosine phosphorylation. To generate homografts, 5×10^5 NIH3T3/FGFR3^S249C cells resuspended in PBS were injected subcutaneously in nude mice (0.2 ml/mouse).
# Evaluation of anti-tumor activity. For the NIH3T3/FGFR3^S249C model, treatment was initiated when the average tumor volume reached approximately 100 mm^3. Tumor growth and body weights were monitored at regular intervals. The tumor sizes were measured manually with calipers. Tumor volume was estimated using the formula: (W×L×H×π/6), where width (W), length (L) and height (H) are the three largest diameters.
# as §2, §3, §4
# FGF23 [4] = experiment: FGF23 ELISA in plasma of dogs; format: in vivo, dog; conditions: plasma 1 hour after last administration
# FGF23 [5] = experiment: FGF23 ELISA in serum of wistar rats; format: in vivo, rat; conditions: 24 h post administration, p<0.01
# Experimental: Data are presented as means of n=6, ±SD.
# Animals. Experiments were performed in female wistar rats furth WF/Ico
# The application volumes were 5 ml/kg.
# Blood samples were drawn sublingually at 24 h post-compound administration. Plasma, as well as serum samples were prepared from each blood sample.
# [6] = Rat mechanistic study: histopathology and tolerability; format: in vivo
compound,measurement,setting,value
"CCN1CCN(c2ccc(Nc3cc(N(C)C(=O)Nc4c(Cl)c(OC)cc(OC)c4Cl)ncn3)cc2)CC1 [COMPOUND A, 3-(2,6-Dichloro-3,5-dimethoxy-phenyl)-1-{6-[4-(4-ethyl-perpazin-1-yl)-phenylamino]-pyrimidin-4-yl}-1-methyl urea]",Regr. (%),[1]; 50 mg/kg,67%
same,Δ body weight (% ± SEM),[1]; 50 mg/kg,10.8 ± 4.1%
same,Δ body weight (mean g ± SEM),[1]; 50 mg/kg,2.6 ± 1.0 g
same,Δ tumor volume (mean mm^3 ± SEM),[1]; 50 mg/kg,−120 ± 12* mm^3
same,Regr. (%),[1]; 75 mg/kg,74%
same,Δ body weight (% ± SEM),[1]; 75 mg/kg,−4.0 ± 4.5%
same,Δ body weight (mean g ± SEM),[1]; 75 mg/kg,-1.1 ± 1.1 g
same,Δ tumor volume (mean mm^3 ± SEM),[1]; 75 mg/kg,−133 ± 13* mm^3
same,Tolerability of treatments,[1]; 50 and 75 mg/kg per day orally,well tolerated
same,Plasma levels of FGF23 vs vehicle-treated group,FGF23 [2],increased plasma levels of FGF23
same,T/C (%),[3]; 10 mg/kg,34%
same,Δ body weight (% ± SEM),[3]; 10 mg/kg,18.0 ± 3.2%
same,Δ body weight (mean g ± SEM),[3]; 10 mg/kg,4.2 ± 0.7 g
same,Δ tumor volume (mean mm^3 ± SEM),[3]; 10 mg/kg,1320 ± 245* mm^3
same,T/C (%),[3]; 30 mg/kg,4%
same,Δ body weight (% ± SEM),[3]; 30 mg/kg,7.0 ± 3.1 %
same,Δ body weight (mean g ± SEM),[3]; 30 mg/kg,1.6 ± 0.7 g
same,Δ tumor volume (mean mm^3 ± SEM),[3]; 30 mg/kg,156 ± 56* mm^3
same,Regr. (%),[3]; 50 mg/kg,40%
same,Δ body weight (% ± SEM),[3]; 50 mg/kg,4.6 ± 2.2 %
same,Δ body weight (mean g ± SEM),[3]; 50 mg/kg,1.1 ± 0.5 g
same,Δ tumor volume (mean mm^3 ± SEM),[3]; 50 mg/kg,−43 ± 28* mm^3
same,FGF-23 cont.,"FGF23 [4]; group 2, 3 → 100 mg/kg/day p.o., animal # 453 (male)",262.5 pg/mL
same,FGF-23 cont.,"FGF23 [4]; group 2, 3 → 100 mg/kg/day p.o., animal # 454 (female)",211.3 pg/mL
same,FGF-23 cont.,"FGF23 [4]; group 3, 30 mg/kg/day p.o., 15 days, animal # 455 (male)",534.3 pg/mL
same,FGF-23 cont.,"FGF23 [4]; group 3, 30 mg/kg/day p.o., 15 days, animal # 456 (female)",322.7 pg/mL
same,FGF-23 cont.,"FGF23 [4]; group 4, 300 mg/kg/day p.o., 8 days, animal # 457 (male)",824.6 pg/mL
same,FGF-23 cont.,"FGF23 [4]; group 4, 300 mg/kg/day p.o., 8 days, animal # 458 (female)",614.8 pg/mL
same,serum levels of FGF23 vs vehicle-treated group,FGF23 [5]; single oral 10 mg/kg,statistically significant increased in serum levels of FGF23
same,Bone remodeling events (histopathology),"[6]; 10 mg/kg/day 15 days + 4 days recovery, 20 mg/kg/day 3 days + 4 days recovery, 20 mg/kg/day 6 days",Signs of bone remodeling events were noted
same,Soft tissue/vascular mineralization (histopathology),[6]; 10 mg/kg/qd groups,not observed
same,Body weight effect leading to premature termination,"[6]; 20 mg/kg once daily p.o., after the 6th administration",severe body weight loss
same,Soft tissue/vascular mineralization (histopathology),"[6]; 20 mg/kg/day for 3 days after 4 recovery days, and after 6 days of treatment",Soft tissue/vascular mineralization was detected
same,Growth plate thickening (histopathology),"[6]; male rats, 10 and 20 mg/kg/day p.o., after three days of treatment",Growth plate thickening was detected
CCN(CC)CCCCNc1ncc2cc(-c3cc(OC)cc(OC)c3)c(NC(=O)NC(C)(C)C)nc2n1 [PD173074],serum levels of FGF23 vs vehicle-treated group,FGF23 [5]; single oral 50 mg/kg,statistically significant increased in serum levels of FGF23

# Reference: US20150323548A1, “METHODS OF MONITORING THE MODULATION OF THE KINASE ACTIVITY OF FIBROBLAST GROWTH FACTOR RECEPTOR AND USES OF SAID METHODS” (Novartis AG, priority 2008, published 2015)
